Experimental data: patent publication US7122570B2, “Tetrahydrocarbazol derivatives as ligands for G-protein-coupled receptors (GPCR)” (Zentaris AG, priority 2001, dated 2006)

Experiments:
[1] = target: T1, hGnRH-Receptor (Homo sapiens, UniProt P30968); assay: GnRH receptor assay: competition binding with 125I-labeled buserelin on cell membranes; settings: competition with 125I-buserelin
T1 construct: expressed in transfected cells; host or cells: CHO-3 cells (Schmid et al., J. Biol. Chem. 275 (2000), 9193-9200), membrane preparation
T1 sequence (P30968 1-328): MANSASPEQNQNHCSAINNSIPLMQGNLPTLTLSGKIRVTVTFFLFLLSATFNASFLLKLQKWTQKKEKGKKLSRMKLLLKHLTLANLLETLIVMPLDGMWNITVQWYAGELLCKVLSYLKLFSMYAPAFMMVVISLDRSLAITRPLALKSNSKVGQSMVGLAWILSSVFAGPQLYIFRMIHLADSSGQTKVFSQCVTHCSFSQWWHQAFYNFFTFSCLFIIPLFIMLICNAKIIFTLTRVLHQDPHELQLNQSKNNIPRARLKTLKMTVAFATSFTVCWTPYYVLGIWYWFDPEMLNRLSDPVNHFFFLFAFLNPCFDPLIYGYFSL
Method: Buserelin is ordered from Welding (Frankfurt/Main, Germany). The compound is labeled with ^125I by use of the chloramine T-method and Na^125I (4000 Ci/mmol; Amersham-Buchler, Brunswick, Germany). The labeled substance is purified by reverse phase HPLC on a Spherisorb ODS II column (250×4 mm, particle size 3 μm) by elution with 50% acetonitrile/0.15% trifluoroacetic acid at a flow rate of 0.5 ml/minute. The specific activity is 2000 Ci/mmol.
Alpha T3-1 cells (Bilezikjian et al., Mol. Endocrinol 5 (1991), 347–355) are cultivated in DMEM medium (Gibco-BRL, Eggenstein-Leopoldshafen, Germany) with penicillin (100 I.U./ml), streptomycin (0.1 mg/ml) and glutamine (0.01 mol/l) and 10% fetal calf serum (FCS; PAA Laboratories, Coelbe, Germany) on plastic tissue culture plates (Nunc, 245×245×20 mm). CHO-3 cells (Schmid et al., J. Biol. Chem. 275 (2000), 9193–9200) are cultivated under identical conditions, apart from the fact that Ham's F12 medium (Gibco-BRL) is used.
Ten confluent cell culture plates are flushed twice with 50 ml of phosphate-buffered salt solution (PBS). The cells are harvested by scraping them off with a rubber scraper in 5 ml of PBS and sedimented by centrifuging in a laboratory centrifuge (Heraeus) at 800 rpm for 10 minutes. The cell pellet is resuspended in 5 ml of 0.25 mol/l of saccharose/0.01 mol/l of triethanolamine, pH 7.4. The cells are lysed by three cycles of freezing in dry ice/ethanol bath and thawing at room temperature. The lysate is centrifuged at 900 rpm for 10 minutes, and the sediment is discarded. The supernatant is centrifuged at 18,000 rpm in a Sorvall SS34 rotor for 30 minutes. The pellet (cell membranes) is suspended by Potters in 5 ml of assay buffer (0.25 mol/l of saccharose, 0.01 mol/l of triethanolamine, pH 7.5, 1 mg/ml of ovalbumin) and stored in 200 μl of aliquots at −20° C. The determination of protein is carried out according to the Bradford method (Anal. Biochem. 72 (1976), 248–254).
Binding studies for competition curves are performed as triplicates. A test sample contains 60 μl of cell membrane suspension (10 μg of protein for αT3-1 cells or 40 μg of protein for CHO3 cells), 20 μl of ^125I-labeled buserelin (100,000 Ipm per sample for competition curves and between 1,500 and 200,000 Ipm for saturation experiments) and 20 μl of test buffer or test compound solution. The test compounds are dissolved in distilled water or 50% ethanol. Serial dilutions (5×10^−6 mol/l to […]) are produced in test buffer. The unspecific binding is determined in the presence of excess unlabeled buserelin (10^−6 mol/1). The test samples are incubated for 30 minutes at room temperature. Bonded and free ligands are separated by filtration (Whatman GF/C-filter, 2.5 cm diameter) with use of an Amicon 10x collecting device and washed twice with 5 ml of 0.02 mol/l of Tris/HCl, pH 7.4. The filters are moistened with 0.3% polyethylenimine (Serva; Heidelberg, Germany) for 30 minutes to reduce the unspecific binding. The radioactivity that was held up by the filter is determined in a 5-channel gamma-counter (Wallac-LKB 1470 Wizard).
In the table below, the IC50 values that are obtained for the preferred compounds, as defined above, are indicated.

[2] = target: T2, GnRH receptor (Homo sapiens, UniProt P30968); assay: Ca2+ release, human; assay type: cell-based; settings: read-out: Ca^2+ Release Human IC50
T2 sequence (P30968 1-328): T1 sequence (P30968 1-328)

[3] = target: T2, GnRH receptor; assay: Receptor binding assay with 125I-triptorelin on transfected LTK cells; settings: competition with 125I-triptorelin, whole LTK cells, 60 minutes at 37° C.
Method: ^125I-Triptorelin [^125I-(D)-Trp6-GnRH] is ordered from the Biotrend Company (Cologne, Germany). The specific activity in each case is 2.13 Ci/mmol. All other chemicals are ordered from commercial sources at the highest available purity.
Transfixed LTK′ cells (ATCC No. CCL-11.3) are cultivated in DMEM medium (Invitrogen Life Technologies, Germany) with penicillin (100 I.U./ml), streptomycin (0.1 mg/ml) and glutamine (0.01 mol/l) and 10% fetal calf serum (FCS; Invitrogen Life Technologies, Germany) on plastic tissue culture plates (Nunc, Germany, 245×245×20 nun).
80% confluent cell culture plates are washed twice with 50 ml of phosphate-buffered salt solution (PBS) and dissolved below with 0.01 M EDTA solution. The cells are pelletized by centrifuging at 200×g for 5 minutes in a laboratory centrifuge (Kendro, Germany). The cell pellet is resuspended in 3 ml of binding medium (DMEM; 10 mmol of Hepes; 0.5% BSA; 0.1% NaN3; 1 g/l of bacitracin (freshly added, stock 100×); 0.1 g/l of SBTI (freshly added, stock 1000×), and the cell count is determined by means of trypan blue staining in a Neubauer counting chamber. The cell suspension is set with binding medium to a concentration of 5×10^5 Z/0.05 ml.
Binding tests for competition curves are performed as duplicates. The test substances are used as 10 mmol DMSO solutions. They are diluted with binding medium to 4× the final concentration used. 25 μl of the substance dilution is mixed with 25 μl of tracer solution (^125I-triptorelin). The concentration of tracer is set to about 50,000 cpm (measured in Cobra II, γ-counter, PE Liefe Science, Germany) in the final reaction volume of 100 μl.
200 μl of a silicone/paraffin oil mixture (84%:16%) is introduced into 650 μl pointed-bottom tubes (Roth, Germany). 50 μl of the cell suspension is pipetted thereto and subsequently 50 μl of the test substance/tracer mixture. The tubes are sealed and incubated for 60 minutes at 37° C. in an incubator that rotates via the top. After incubation, the samples are centrifuged in a centrifuge (Kendro, Germany) at 900 rpm and subsequently flash-frozen in liquid N2. The tip with the cell pellet is cut off and inserted into the prepared counting tube (Roth, Germany). The remainder of the pointed-bottom tube with the remaining supernatant is also inserted into a counting tube. The measurement is made in a γ-counter for 1 minute/sample.
The evaluation of the samples is carried out after calculating the specific bond in comparison to untreated cells, after the unspecific bond (excess unlabeled ligand, 1 mmol) is removed by means of GraphPad Prism (GraphPad Software Inc., USA).

| Compound | IC50 [1] [nM] | IC50 [2] [nM] | EC50 [3] [nM] |
| --- | --- | --- | --- |
| COc1cccc2c3c([nH]c12)CC[C@](NC(=O)Cc1ccc(Cl)cc1)(C(=O)N1CCC[C@H]1C(N)=O)C3 [Compound 189a, (2S)-1-[[(3R)-3-[[(4-Chlorophenyl)acetyl]-amino]-2,3,4,9-tetrahydro-8-methoxy-1H-carbazol-3-yl]carbonyl]-2-pyrrolidine-carboxamide] | 700 | 500 | – |
| c1ccc(CCCC2(CNCc3ccccn3)CCc3[nH]c4ccccc4c3C2)cc1 (centres unmarked) [Compound 279, 2,3,4,9-Tetrahydro-3-(3-phenylpropyl)-N-(2-pyridinylmethyl)-1H-carbazole-3-methanamine] | 2000 | 3000 | – |
| Clc1cc(Cl)c2[nH]c3c(c2c1)CC(CCCc1ccccc1)(CNCc1ccccn1)CC3 (centres unmarked) [Compound 283, 6,8-dichloro-2,3,4,9-tetrahydro-3-(3-phenylpropyl)-N-(2-pyridinylmethyl)-1H-carbazole-3-methanamine] | 1000 | 3000 | – |
| CC(C)[C@@H](CO)NCC1(CCCc2ccccc2)CCc2[nH]c3ccccc3c2C1 (stereo partly drawn) [Compound 284, (2S)-3-Methyl-2-[[[2,3,4,9-tetrahydro-3-(3-phenylpropyl)-1H-carbazol-3-yl]methyl]-amino]-1-butanol] | 7000 | 7000 | – |
| CC[C@H](C)[C@H](NC(=O)OCc1ccccc1)C(=O)N[C@]1(C(=O)N[C@H](C(N)=O)C(C)(C)C)CCc2[nH]c3c(Cl)cc(Cl)cc3c2C1 [Compound 298, Phenylmethyl [(1S,2S)-1-[[[(3R)-3-[[[(1S)-1-(aminocarbonyl)-2,2-dimethylpropyl]amino]carbonyl]-6,8-dichloro-2,3,4,9-tetrahydro-1H-carbazol-3-yl]amino]car-bonyl]-2-methylbutyl]carbamate] | – | – | 288 |
| CC[C@H](C)[C@H](NC(=O)[C@@]1(NC(=O)[C@H](CCc2ccc(O)cc2)NC(=O)OCc2ccccc2)CCc2[nH]c3c(Cl)cc(Cl)cc3c2C1)C(N)=O [Compound 303, Phenylmethyl [(1S)-1-[[[(3R)-3-[[[(1S,2S)-1-(aminocarbonyl)-2-methylbutyl]amino]carbonyl]-6,8-dichloro-2,3,4,9-tetrahydro-1H-carbazol-3-yl]amino]car-bonyl]-3-(4-hydroxyphenyl)-propyl]carbamate] | – | – | 21 |
| CC[C@H](C)[C@H](NC(=O)[C@@]1(NC(=O)[C@H](CC(C)C)NC(=O)OCc2ccccc2)CCc2[nH]c3c(Cl)cc(Cl)cc3c2C1)C(N)=O [Compound 305, Phenylmethyl [(1S)-1-[[[(3R)-3-[[[(1S,2S)-1-(aminocarbonyl)-2-methylbutyl]amino]carbonyl]-6,8-dichloro-2-3,4,9-tetrahydro-1H-carbazol-3-yl]amino]car-bonyl]-3-methylbutyl]carbamate] | – | – | 56 |
| CC(C)C[C@H](NC(=O)[C@@]1(NC(=O)[C@H](CC(C)C)NC(=O)OCc2ccccc2)CCc2[nH]c3c(Cl)cc(Cl)cc3c2C1)C(N)=O [Compound 306, Phenylmethyl [(1S)-1-[[[(3R)-3-[[[(1S)-1-(aminocarbonyl)-3-methylbutyl]amino]carbonyl]-6,8-dichloro-2,3,4,9-tetrahydro-1H-carbazol-3-yl]amino]car-bonyl]-3-methylbutyl]carbamate] | – | – | 77 |

Now from value to molecule:

| IC50 [1] [nM] | IC50 [2] [nM] | EC50 [3] [nM] | Compound |
| --- | --- | --- | --- |
| 2000 | 500 | – | CC[C@H](C)[C@H](NC(=O)OCc1ccccc1)C(=O)N[C@]1(C(=O)N2C3CCCCC3C[C@H]2C(N)=O)CCc2[nH]c3ccccc3c2C1 (stereo partly drawn) [Compound 190a, Phenylmethyl [(1S,2S)-1-[[[(3R)-3-[[(2S)-2-(aminocarbonyl)octahydro-1H-indol-1-yl]-carbonyl]-2,3,4,9-tetrahydro-1H-carbazol-3-yl]-amino]carbonyl]-2-methylbutyl]carbamate] |
| 2500 | 3000 | – | CC[C@H](C)[C@H](NC(=O)OCc1ccccc1)C(=O)N[C@]1(C(=O)N[C@H](C(=O)NC)C(C)C)CCc2[nH]c3ccccc3c2C1 [Compound 222a, Phenylmethyl [(1S,2S)-2-methyl-1-[[[(3R)-2,3,4,9-tetrahydro-3-[[[(1S)-2-methyl-1-[(methylamino)carbonyl]-propyl]amino]carbonyl]-1H-carbazol-3-yl]amino]carbonyl]-butyl]carbamate] |
| 9000 | 1000 | – | CC(C)[C@H](NC(=O)[C@@]1(NCCCCCCc2ccccc2)CCc2[nH]c3ccccc3c2C1)C(N)=O [Compound 234a, (3R)-N-[(1S)-1-(Aminocarbonyl)-2-methylpropyl]-2,3,4,9-tetrahydro-3-[(6-phenylhexyl)amino]-1H-carbazole-3-carboxamide] |
| 400 | 500 | – | CC[C@H](C)[C@H](NC(=O)OCc1ccccc1)C(=O)N[C@]1(C(=O)N[C@H](CO)C(C)C)CCc2[nH]c3ccccc3c2C1 [Compound 267a, Phenylmethyl [(1S,2S)-1-[[[(3R)-3-[[[(1S)-1-(hydroxymethyl)-2-methylpropyl]amino]-carbonyl]-2,3,4,9-tetrahydro-1H-carbazol-3-yl]amino]carbonyl]-2-methylbutyl]carbamate] |
